In patent US4956389A, “Compounds having calcium blocking activity” (priority 1982, dated 1990):
Values joined by “and” are separate entries in the source; they are usually repeats but may differ in a detail not shown here. Equal entries are not always repeated. Where two headings read alike, the source gives them in different places.

Columns and labels:
[1] = Acute toxicity (Litchfield and Wilcoxon); conditions: rat, in vivo, male rats, read-out: toxicity DL50
From the text: The acute toxicity has been determined by the oral route, by the venous route in male rats according to the method of Litchfield and Wilcoxon (J. Pharm. Exp. Therap., (1949), 96, p. 99).

[2] = test system: kidney cells in newborn hamsters; assay: Inhibition of Ca2+-uptake in kidney cells in newborn hamsters; format: cell-based, hamster
Protocol: Cells of kidneys of newborn hamsters have been washed and then resuspended several times in concentration of 5·10^6 /cc in the medium of the following composition:
After 15 minutes of preincubation at 30° C., the reaction was made to begin by addition to the medium of ^45 CaCl2 1 mM (0.1μCi/cc). The concentrations at 0 period of time were the concentrations determined two minutes after the addition. The other controls were carried out after 5 minutes, 10 minutes, and 20 minutes. The determination of [Ca^2+ ] was carried out as in the preceding experiment.

aorta of rabbits = assay: Antagonistic activity on the contractions produced by arachidonic acid on the aorta of rabbits, study in vitro; set-up: species or system rabbit
Protocol: The study has been carried out by comparison with Nicardipine using autologous blood as the perfusion liquid. The addition of 0.1 mg of arachidonate to the liquid induces an isometric contraction of the aorta which is registered by a transducer. […] This phenomenon is shown by the relaxation which follows the addition of arachidonate to the perfusion blood. This effect may be noted with 0.1 mg/kg of YS 035 and 1 mg/kg of Nicardipine.

phosphodiesterase = assay: Inhibition of the phosphodiesterase activity (method of K. G. Nair); format: biochemical
Protocol: The inhibition of phosphodiesterase activity of YS 035 and of papaverine has been assessed according to the method of K. G. Nair (Biochemistry, 5, 150, 1966).
It has been used a medium containing:
2.5 ml of buffer tris-HCl 0.1M pH 7.4;
50 μl CAMP "Sigma" (1 mg/ml);
5 μl Adenosin deaminase (2 mg/ml);
20 μl of alkaline phosphatase "Sigma" (2.6 mg/ml);
15 μl of phosphodiesterase (10 mg/ml).
YS 035 has been added up to a final concentration of 100 mM and Papaverine to a concentration of 10 mM.

portions of the aorta = assay: Contraction of aorta portions by arachidonic acid after oral administration to rabbits (studies in vivo); set-up: species or system rabbit
Protocol: Both substances YS 035 and Nicardipine have been administered orally for a period of three consecutive days to rabbits in such a manner that the last administration of each substance was carried out one hour prior to killing the animals. The portions of the aorta had then been incubated either in PRP as well as in the Krebs-Henseleit liquid.

rats [3] = assay: Effect on the multiple cerebral infarct in rats (intracarotid sodium arachidonate); format: in vivo, rat; conditions: 15 minutes prior to the infarct
Protocol: The intracarotid injection of sodium arachidonate (0.1 mg) causes in rats an edema reaction accompanied by an accumulation of calcium in the brain tissue and a decrease, on the other hand, of the cholesterol level.

rats [4] = assay: Anti-arrythmic and antiischemic effect in rats (left coronary artery tied); format: in vivo, rat
Protocol: The left coronary artery, when it is tied, induces in the anesthetized rats a precocious arrythmia (30 minutes) particularly ectopic beats, ventricular tachycardia (VT), ventricular fibrillation (VF) according to the methods of Selye 1960, Clark 1980 and Parratt 1982.

dogs = assay: Effect on the myocardial infarct in the subacute phase in dogs (method of Harris); format: in vivo, dog; conditions: 0.1 mg/kg intravenously, three times within 48 hours
Protocol: The tying up of the […] coronary artery by the method of Harris causes the following effects:
The treatment with YS 035 in the dose of 0.1 mg/kg intravenously, carried after tying the coronary artery and three times within 48 hours in the same dose has provided the following results: […]

calcium entry = assay: Calcium antagonistic activity (general statement); conditions: compared with nifedipine

## COc1ccc(CCN(C)CCc2ccc(OC)c(OC)c2)cc1OC [YS 035, N-methyl-N-bis-(3,4-dimethoxy-phenyl-ethyl)amine]
[1]; iv, venous route
  LD50: 19 mg/kg
[1]; oral route
  LD50: 178 mg/kg
[2]; 250 μM, 30° C., control 11.9
  Ca2+-uptake: 7.5 n g ions/mg prot/15'
[2]; 250 μM, compared with nifedipine
  inhibitory action on the uptake of Ca (in words): superior to the activity of nifedipine
[2]; Mesocricetus auratus, 0.25 h, 15 min
  percent change in Ca2+-uptake versus control at 250 µM: -36.9%
Aorta of rabbits; N = 4
  Contraction of the first portion of the aorta: 48 ± 6.7 mm
Aorta of rabbits; Oryctolagus cuniculus, dose 0.01 mg·Kg^-1, read-out: Contraction of the second and third portion of the aorta, % Variation
  inhibition at 0.01 mg/kg: 42 ± 31%
Aorta of rabbits; Oryctolagus cuniculus, dose 0.1 mg·Kg^-1, second and third portion, read-out: % Variation, small contractions observed occasionally prior to relaxation (value in brackets)
  inhibition at 0.1 mg/kg: 60 ± 29.3%
Aorta of rabbits; Oryctolagus cuniculus, dose 1.0 mg·Kg^-1, read-out: Contraction of the second and third portion of the aorta, % Variation
  inhibition at 1 mg/kg: 132 ± 16.1%
Aorta of rabbits; Oryctolagus cuniculus, line without dose, below dose 1.0 mg·Kg^-1, read-out: Contraction of the second and third portion of the aorta, % Variation
  inhibition at 1 mg/kg: 16%
Aorta of rabbits; Oryctolagus cuniculus, autologous blood perfusion, 0.1 mg arachidonate, read-out: dose at which relaxation following the addition of arachidonate is noted
  minimal effective dose: 0.1 mg/kg
Aorta of rabbits; YS 035 compared with Nicardipine
  inhibitory effect on the contraction produced by the arachidonate (in words): comparable
phosphodiesterase; general statement
  inhibiting activity on the phosphodiesterases (in words): completely devoid of inhibiting activity on the phosphodiesterases
phosphodiesterase; up to a final concentration of 100 mM
  inhibition of phosphodiesterase activity (in words): completely inactive
Portions of the aorta; 10 mg·Kg^-1 P.O., Krebs, controls 12 ± 2.3
  Amplitude of contraction, medium Krebs, individual values: -6 mm and +7 mm
Portions of the aorta; 10 mg·Kg^-1 P.O., PRP, controls 30 ± 8.0
  Amplitude of contraction, PRP, individual values: +28 mm
Portions of the aorta; aortic endothelial level, particularly PGI2
  site of action (in words): act directly on the synthesis of prostaglandin
Rats [3]; 1 mg/kg intravenously
  entry of calcium in brain tissue (in words): reduces moderately the entry of calcium
Rats [3]; intravenously, 1, 3.3 and 10 mg/kg
  other changes at the biochemical level (in words): no effect
Rats [4]; 0.156 mg/Kg I.V.
  % Death: 20%
  Latent Time Death: 26 min
  Latent time: 22
  No. ectopic beats: 907
  VF: 4 s
  VF (%): 40%
  VT: 34 s
Rats [4]; 0.625 mg/Kg I.V.
  % Death: 0%
  Latent Time Death: > 30 min
  Latent time: 30
  No. ectopic beats: 646
  VF: 0 s
  VF (%): 0%
  VT: 9 s
Rats [4]; 1.25 mg/Kg I.V.
  % Death: 0%
  Latent Time Death: > 30 min
  Latent time: 30
  No. ectopic beats: 684
  VF: 0 s
  VF (%): 0%
  VT: 29 s
Rats [4]; 2.5 mg/Kg I.V.
  % Death: 0%
  Latent Time Death: > 30 min
  Latent time: 26
  No. ectopic beats: 725
  VF: 9 s
  VF (%): 20%
  VT: 34 s
Rats [4]; 5 mg/Kg I.V.
  % Death: 0%
  Latent Time Death: > 30 min
  Latent time: 21
  No. ectopic beats: 1287
  VF: 5 s
  VF (%): 50%
  VT: 62 s
Rats [4]; 10 mg/Kg I.V.
  % Death: 0%
  Latent Time Death: > 30 min
  Latent time: 30
  No. ectopic beats: 474
  VF: 0 s
  VF (%): 0%
  VT: 9 s
Rats [4]; 20 mg/Kg I.V.
  % Death: 0%
  Latent Time Death: > 30 min
  Latent time: 20
  No. ectopic beats: 777
  VF: 10 s
  VF (%): 50%
  VT: 22 s
Rats [4]; above 10 mg/kg, endovenous
  dose-effect relationship (in words): there is a regression of the results
Rats [4]; endovenous, between 0.625 and 10 mg/kg
  onset of VF, VT and death (in words): prevents the onset of the most serious arrythmia such as VF and VT and the death
dogs
  consumption of glucose in the myocardium (in words): not changed
  consumption of lactate (in words): has a tendency to return to normality
  consumption of oxygen (in words): increases substantially
  coronary blood flow (in words): remains similar to that of the control groups, or at the most tends to increase moderately
  coronary vascular resistance (in words): not only is reduced, but becomes inferior to that of the control group
  index of the aortic flow (in words): not changed
  index of work of the left ventricle (in words): significantly higher than that present in the dogs with the infarct
  ratio DPTI/TTI (in words): not changed
  uptake of the free fatty acids (in words): increases and reaches also a value twice the basal flow measured in healthy control animals
Calcium entry
  calcium antagonistic activity (in words): strong calcium antagonistic activity, comparable to nifedipine
